Data reported in PubChem BioAssay (NCI).
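Briefly, cells in 96-well plates were exposed to five compound concentrations for 48 h, and endpoints were estimated by linear interpolation. TGI marks complete inhibition of growth.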

Assays:
Assay in all cases: inhibition of tumour cell growth, NCI panel, 48 h
[1] = system: SF-268 CNS
[2] = system: MDA-N
[3] = system: HCT-116 colon
[4] = system: HS 578T breast
[5] = system: CAKI-1 renal
[6] = system: OVCAR-5 ovarian
[7] = system: NCI/ADR-RES ovarian
[8] = system: NCI-H226 lung
[9] = system: A498 renal
[10] = system: SNB-19 CNS
[11] = system: KM12 colon
[12] = system: PC-3 prostate
[13] = system: SR leukemia
[14] = system: LOX IMVI melanoma
[15] = system: MDA-MB-231 breast
[16] = system: CCRF-CEM leukemia

Row | SMILES | TGI [1] [µM] | TGI [2] [µM] | TGI [3] [µM] | TGI [4] [µM] | TGI [5] [µM] | TGI [6] [µM] | TGI [7] [µM] | TGI [8] [µM] | TGI [9] [µM] | TGI [10] [µM] | TGI [11] [µM] | TGI [12] [µM] | TGI [13] [µM] | TGI [14] [µM] | TGI [15] [µM] | TGI [16] [µM]
1 | CNC(=O)C(NC(=O)[C@H](CC(C)C)NC(=O)[C@@H](S)CCN1C(=O)N(C)C(C)(C)C1=O)C(C)(C)C (stereo not given in full) | > 100 | > 100 | > 100 | > 100 | > 100 | > 100 | > 100 | > 100 | > 100 | > 100 | > 100 | > 100 | > 100 | – | – | –
2 | C/C(=N\Nc1ncnc2ccccc12)c1ccccn1 | 7.2 | 27.5 | 13.9 | 47.5 | 1.67 | 64.6 | 0.551 | 1.13 | 16.4 | 59.1 | 22.1 | 31.6 | – | 5.45 | – | –
3 | Cc1cc(O)c(/C=N/C(=O)NN)c(=O)o1 | > 100 | > 100 | > 100 | > 100 | > 100 | > 100 | > 100 | – | – | > 100 | > 100 | > 100 | – | > 100 | > 100 | > 100
4 | Cc1cc(NS(=O)(=O)c2ccc(NC(=O)c3cccc4c(NNc5ccc(S(N)(=O)=O)cc5)c5ccccc5nc34)cc2)no1 | > 100 | > 100 | > 100 | – | > 100 | > 100 | > 100 | 91.7 | – | > 100 | > 100 | > 100 | 93.2 | 86.1 | > 100 | 66.2
5 | CN(C)C(=O)CO/N=C1/C(c2c(O)[nH]c3ccccc23)=Nc2ccccc21 | > 100 | > 100 | > 100 | > 100 | > 100 | > 100 | > 100 | > 100 | – | > 100 | > 100 | > 100 | > 100 | > 100 | > 100 | > 100
6 | CCN(CC)CCNc1ccc2nnn3c4ccc(OC(C)=O)cc4c(=O)c1c23 | 18.1 | 17.8 | > 37.5 | 19.1 | 3.31 | 24 | 19.1 | 7.62 | 21 | > 43.2 | 15.4 | 17.3 | – | 6.83 | 16 | 3.2
7 | C[n+]1c(-c2ccc(/C=N/Nc3n[nH]c(=S)n3N/N=C/c3ccc(-c4cn5ccccc5[n+]4C)cc3)cc2)cn2ccccc21 | > 100 | > 100 | > 100 | > 100 | – | > 100 | > 100 | – | – | > 100 | > 100 | > 100 | > 100 | – | > 100 | > 100
8 | CC1(C)C(C(=O)OC(C#N)c2cccc(OCC(=O)OCc3ccccc3)c2)C1(C)C (stereo not given) | > 100 | > 100 | > 100 | > 100 | > 100 | > 100 | > 100 | > 100 | > 100 | > 100 | > 100 | > 100 | – | > 100 | > 100 | 76.5
